Assay results from patent US4357425A, “Process for producing L-amino acid oxidase” (Toyo Jozo Company, Ltd., priority 1980, dated 1982).
Several values for one entry are separate records, joined by “and”; a condition that tells them apart may be missing. Equal values may be shown once.

The compounds below were run on L-amino acid oxidase (assay: Inhibition and activation of L-amino acid oxidase by metallic ions or other additives). Conditions: 1 mM additive, 0.01 U of the enzyme; None = 100.
Assay type: biochemical, Colletotrichum sp. M5073
Method: (§1) 0.9 ml of a reaction solution of the following composition is placed in a small test tube and warmed to 37° C.
(§2) 0.1 ml of a liquid containing L-amino acid oxidase is added thereto and reaction continued for exactly for 10 minutes at 37° C. The reaction was terminated by adding 2.0 ml of ethanol. Then, the amount of hydrogen peroxide formed is colorimetrically determined from absorbance measured at 480 nm. The enzymatic activity is determined from the amount of the hydrogen peroxide formed with the following equation: […]
(§3) The amount of the enzyme which produces 1μ mole of hydrogen peroxide at 37° C. in one minute is defined as one unit (1 U).
The enzymatic activities of the enzyme are measured with the same procedures as the measurement of the enzyme activity using 0.01 U of the enzyme, and adding 1 mM of various metallic ions or other additives as shown in Table 2 below to the reaction solution. Cyano ion has a strong inhibiting effect on the enzyme and no ion is found to have an activating effect on the enzyme.

First: [Ba+2].[Cl-].[Cl-] [BaCl2]
Second: [Ca+2].[Cl-].[Cl-] [CaCl2]
The “Relative activity (%) with additive” value of the first is higher: 97.1% for the first, 95.4% for the second.

Going from `[Cl-].[Cl-].[Co+2]` [CoCl2] to `[Cl-].[Cl-].[Mg+2]` [MgCl2], the “Relative activity (%) with additive” value rises from 50.6% to 99.2%.

Compared with `O=C(O)CN(CCN(CC(=O)O)CC(=O)O)CC(=O)O` [EDTA], `[Cl-].[Li+]` [LiCl] is lower in “Relative activity (%) with additive” value: 100% for the first, 97.5% for the second.

`[Cl][Mn][Cl]` [MnCl2] and `Cl.N` [NH4 Cl] are the same in “Relative activity (%) with additive” value: 97.1% for the first, 97.1% for the second.

Going from `[F-].[Na+]` [NaF] to `[N-]=[N+]=[N-].[Na+]` [NaN3], the “Relative activity (%) with additive” value rises from 97.9% to 100%.

With `[Cl-].[Cl-].[Zn+2]` [ZnCl2] the “Relative activity (%) with additive” value was 94.2%.

The compounds below were run on L-amino acid oxidase (assay: Substrate specificity of L-amino acid oxidase (enzyme activity measurement, H2O2 colorimetry)). Conditions: not given.
Assay type: biochemical, Colletotrichum sp. M5073
Method: as §1, §2, §3
Enzymatic activities of the enzyme on various substrates as shown in the Table 1 below are measured with the same procedures as the measurement of the enzyme activity by using 5 m mole of the substrate and 0.007 U of the enzyme.

With `CC(C)C[C@H](N)C(=O)O` [L-Leucine] the “Enzyme acts upon substrate” value was “acts upon”.

Same assay, conditions: 5 m mole of the substrate, 0.007 U of the enzyme; 37° C., 10 minutes; L-Leucine = 100

Going from `CC[C@H](C)[C@H](N)C(=O)O` (racemic) [DL-Isoleucine] to `CC(C)C[C@H](N)C(=O)O` [L-Leucine], the “Relative activity (%) on substrate” value rises from 15.3% to 100.0%.

First: NC(Cc1c[nH]c2ccccc12)C(=O)O (racemic) [DL-Tryptophan]
Second: N[C@H](Cc1ccccc1)C(=O)O [D-Phenylalanine]
The “Relative activity (%) on substrate” value of the first is higher: 27.1% for the first, 0.0% for the second.

Compared with `C[C@@H](N)C(=O)O` [D-Alanine], `C[C@H](N)C(=O)O` [L-Alanine] is higher in “Relative activity (%) on substrate” value: 0.0% for the first, 12.3% for the second.

Compared with `N=C(N)NCCC[C@H](N)C(=O)O` [L-Arginine], `NCCCC[C@H](N)C(=O)O` [L-Lysine] is lower in “Relative activity (%) on substrate” value: 39.9% for the first, 29.6% for the second.

`N[C@@H](CC(=O)O)C(=O)O` [L-Aspartic acid] and `N[C@@H](CCC(=O)O)C(=O)O` [L-Glutamic acid] are the same in “Relative activity (%) on substrate” value: 0.0% for the first, 0.0% for the second.

`NCC(=O)O` [L-Glycin] and `N[C@@H](CO)C(=O)O` [L-Serine] are the same in “Relative activity (%) on substrate” value: 0.0% for the first, 0.0% for the second.

First: N[C@@H](Cc1c[nH]cn1)C(=O)O [L-Histidine]
Second: N[C@@H](Cc1ccccc1)C(=O)O [L-Phenylalanine]
The “Relative activity (%) on substrate” value of the first is lower: 11.8% for the first, 70.0% for the second.

First: CC[C@H](C)[C@H](N)C(=O)O [L-Isoleucine]
Second: CSCC[C@H](N)C(=O)O [L-Methionine]
The “Relative activity (%) on substrate” value of the first is lower: 29.1% for the first, 93.6% for the second.

With `N[C@@H](Cc1ccc(O)cc1)C(=O)O` [L-Tyrosine] the “Relative activity (%) on substrate” value was 22.2%.

In the case of `N[C@@H](CS)C(=O)O` [L-Cysteine], the “Relative activity (%) on substrate” value is reported as 6.4% and 0.0%.

The compounds below were run on L-amino acid oxidase (assay: Km value of L-amino acid oxidase). Conditions: upon L-leucine.
Assay type: biochemical, Colletotrichum sp. M5073

Compound `CC(C)C[C@H](N)C(=O)O` [L-Leucine] has a Km of 170 µM.
